Two compounds from patent EP0465913B1, “Diaminotrifluoromethylpyrimidine derivatives, process for their production and phospholipase A2 inhibitor containing them” (ISHIHARA SANGYO KAISHA, LTD., priority 1990, dated 1992) can be followed below.

Each structure is given as a SMILES string. Where “and” joins values, the source holds several entries; their conditions need not be identical. Equal values may be shown once. Where a name gives a salt, the structure may show the parent alone.

Series [1] relates to experimental acute pancreatitis model. In words: Effects against acute pancreatitis (Test Example 7, closed duodenal loop method, gross pathological examination). It counts as in vivo, Crj-CD male rats. On the set-up: key: -: No significant lesions; ±: Minimal; +: Light; ++: Moderate; +++: Marked. Conditions: 40 mg per kg continuous intravenous injection, examination 3 hours after ventrotomy, individual rats. The procedure:
(§1) Using Crj-CD male rats (for Compound No. 19, rats having a body weight of from 371 to 484 g were used, and for Compound No. 10, rats having a body weight of from 444 to 574 g were used), each test group consisted of 3 rats. An experimental acute pancreatitis model was prepared by a closed duodenal loop method under anesthesia with halothane (manufactured by Hoechst Japan) and nitrous oxide (manufactured by Sumitomo Seika K.K.) applied by means of a general inhalation anesthesia machine (Model EM-2 and halothane evaporator F-Model). Then, Compound No. 19 or Compound No. 10 was continuously intravenously injected into the tail vein in an amount of 50 mg per kg or 40 mg per kg, respectively, at a rate of 0.05 ml per minute by means of a pump (Technicon AA II Proportioning Pump III, manufactured by Technicon Instruments Corporation). No injection was made to a control group. Gross pathological examination was conducted upon expiration of 6 hours after the ventrotomy in the case of the test group to which Compound No. 19 was administered, or upon expiration of 3 hours after the ventrotomy in the case of the test group to which Compound No. 10 was administered. As a result, as shown in the following Table 12, the groups to which the compounds of the present invention were administered, show distinct usefulness for treating acute pancreatitis.

Series [2] shares this test system. Described as above. It counts as in vivo, Crj-CD male rats. On the set-up: key: -: No significant lesions; ± ∼ +++: Focal-diffuse; ± ∼ +++: Focal-diffuse; ± ∼ +++: Focal-diffuse; ± ∼ +++: Focal-diffuse. As to conditions: 40 mg per kg continuous intravenous injection, examination 3 hours after ventrotomy, individual rats. The procedure: as §1
Series [3] shares this test system. The description is as above. Also noted: key to Pancreatic edema Distribution: -: No significant lesions; ± ∼ +++: Focal-diffuse; ± ∼ +++: Focal-diffuse; ± ∼ +++: Focal-diffuse; ± ∼ +++: Focal-diffuse; key to Pancreatic hemorrhage Petechia Grade / Pancreatic edema Grade: -: No significant lesions; ±: Minimal; +: Light; ++: Moderate; +++: Marked. As to conditions: 40 mg per kg continuous intravenous injection, examination 3 hours after ventrotomy, individual rats. The series is classed as in vivo, Crj-CD male rats. The procedure: as §1

In another series the test system is ddy male mice. In words: Acute toxicity, intravenous injection (LD50). It counts as in vivo. As to conditions: sodium salt, mortality over one week, 10080 min. The procedure:
Administration route: Intravenous injection
Using ddy male mice (body weight: 25 - 30 g), each test group consisted of 5 mice. A test compound was dissolved in the form of a sodium salt in a physiological saline or in a 5% glucose aqueous solution, and intravenously injected in an amount of 0.1 ml/10 g body weight. After the injection, the mortality rate was obtained over one week, and the median lethal dose LD50 (mg/kg) was determined.

Turning to `CS(=O)(=O)Nc1ncc(C(F)(F)F)cc1NC(=O)c1ccc(F)cc1` [Compound No. 10, N-(2-methylsulfonylamino-5-trifluoromethyl-3-pyridyl)-4-fluorobenzamide], the “Pancreatic hemorrhage Petechia Distribution” value in series [1] is listed as “-”. Moreover, in series [2], the “Pancreatic hemorrhage Petechia Distribution” value was “± and +”. In addition, in series [3], the “Pancreatic edema Distribution” value was “± and + (2×)”; the “Pancreatic edema Grade” value is “± and + and ††”; the “Pancreatic hemorrhage Petechia Grade” value is “± and - and +”.
What is called LD50 is the dose expected to kill half of the subjects tested. Take `CCS(=O)(=O)Nc1ncc(C(F)(F)F)cc1NC(=O)C1CCCCC1` [Compound No. 251, sodium salt of N-(2-ethylsulfonylamino-5-trifluoromethyl-3-pyridyl)cyclohexanecarboxamide]: the LD50 in the series on ddy male mice amounted to 65 mg/kg.
